According to patent US20070015823A1, “Ambruticin VS compounds” (priority 2004, published 2007):
≈ marks a conversion by molar mass, not a printed value. Like-named read-outs stand apart in the source and are kept apart here.

Columns and labels:
C. posadasii = experiment: microbe, parasite or virus in culture; type: cell-based, Coccidioides posadasii; settings: for MIC: Coccidioides posadasii
A. fumigatus ATCC 204305 = experiment: Broth microdilution antifungal susceptibility, NCCLS M38-A; type: cell-based, Aspergillus fumigatus; settings: minimal concentration inhibiting >95% growth, average of at least two assays (except I-l and I-x)
Microsporum canis = experiment: Dermatophyte broth microdilution, NCCLS M38-A; type: cell-based
S. apiospermum = experiment: Broth microdilution antifungal susceptibility, NCCLS M38-A; type: cell-based, Scedosporium apiospermum; settings: for MIC: Scedosporium apiospermum, 50% growth inhibition, range = minimum and maximum of multiple assays
C. immitis = experiment: microbe, parasite or virus in culture; type: cell-based, Coccidioides immitis; settings: for MIC: Coccidioides immitis
Histoplasma capsulatum = type: cell-based
[1] = system: Trichophyton mentagrophytes; experiment: Dermatophyte broth microdilution, NCCLS M38-A; type: cell-based
A. flavus ATCC 204304 = experiment: Broth microdilution antifungal susceptibility, NCCLS M38-A; type: cell-based, Aspergillus flavus; settings: minimal concentration inhibiting >95% growth, average of at least two assays (except I-l and I-x)
Cryptococcus neoformans = experiment: as above; settings: for MIC: Cryptococcus neoformans
Fusarium solani = experiment: as above; type: cell-based; settings: strain 96-1, 50% growth inhibition, range = minimum and maximum of multiple assays
Trichophyton rubrum = experiment: Dermatophyte broth microdilution, NCCLS M38-A; type: cell-based
Microsporum gypseum = experiment: Dermatophyte broth microdilution, NCCLS M38-A; type: cell-based
Blastomyces dermatitidis = experiment: Broth microdilution antifungal susceptibility, NCCLS M38-A; type: cell-based; settings: for MIC: Blastomyces dermatitidis
Candida krusei = settings: strain 6258; 95% growth inhibition
Candida parapsilosis = settings: strain 92019; 95% growth inhibition
Epidermophyton floccosum = experiment: Dermatophyte broth microdilution, NCCLS M38-A; type: cell-based
[2] = system: Trichophyton interdigitale; experiment: Dermatophyte broth microdilution, NCCLS M38-A; type: cell-based

## CC[C@H]1O[C@@H](/C(C)=C/[C@H](C)/C=C/[C@H]2[C@@H](C)[C@@H]2/C=C/[C@@H]2O[C@H](CC(=O)O)C[C@H](N(C)C(C)C)[C@H]2O)CC=C1C [I-v, (5S,6R)-5-(N-isoproyl-methylamino)-6-hydroxypolyangioic acid]
C. posadasii
  MIC C. posadasii C735: 0.25 µg/mL (≈ 0.472 µM)
  MIC C. posadasii RMSCC 2127: 0.125 µg/mL (≈ 0.236 µM)
  MIC C. posadasii Silveria: 0.25 µg/mL (≈ 0.472 µM)
A. fumigatus ATCC 204305
  MIC0 A. fumigatus ATCC 204305: 1.32 µg/mL
Microsporum canis
  MIC0 Mc: 2 µg/mL
S. apiospermum
  MIC S. apiospermum 94-54: >16 µg/mL
  MIC S. apiospermum 98-38: >16 µg/mL
  MIC S. apiospermum 98-89: 0.25 µg/mL (≈ 0.472 µM)
C. immitis
  MIC C. immitis RMS 2281: 0.125 µg/mL (≈ 0.236 µM)
  MIC C. immitis RS: 0.25 µg/mL (≈ 0.472 µM)
  MIC C. immitis S46: 0.125 µg/mL (≈ 0.236 µM)
Candida albicans; strain 24433, 50% growth inhibition, range = minimum and maximum of multiple assays
  MIC C. albicans 24433: >32 µg/mL
Candida albicans; strain 90028, 50% growth inhibition, range = minimum and maximum of multiple assays
  MIC C. albicans 90028: >32 µg/mL
Histoplasma capsulatum
  MIC H. capsulatum G217B: <0.19 µg/mL
  MIC H. capsulatum GS20: <0.19 µg/mL
[1]
  MIC0 Tm: 4 µg/mL
A. flavus ATCC 204304
  MIC0 A. flavus ATCC 204304: 1.1 µg/mL
Cryptococcus neoformans; strain 97-14, 50% growth inhibition, range = minimum and maximum of multiple assays
  MIC C. neoformans 97-14: 0.5 µg/mL (≈ 0.944 µM)
Cryptococcus neoformans; strain 11239, 50% growth inhibition, range = minimum and maximum of multiple assays
  MIC C. neoformans 11239: 0.25 µg/mL (≈ 0.472 µM)
Cryptococcus neoformans; strain 11240, 50% growth inhibition, range = minimum and maximum of multiple assays
  MIC C. neoformans 11240: 0.25 to 0.5 µg/mL
Fusarium solani
  MIC F. solani 96-1: >16 µg/mL
Trichophyton rubrum
  MIC0 Tr: 5.03 µg/mL
Microsporum gypseum
  MIC0 Mg: 2 µg/mL
Blastomyces dermatitidis
  MIC0 Blastomyces dermatitidis 04-2167: 0.06 µg/mL
  MIC0 Blastomyces dermatitidis 04-2508: 0.06 µg/mL
  MIC0 Blastomyces dermatitidis 04-2915: 0.125 µg/mL
  MIC0 Blastomyces dermatitidis 05-106: 0.03 µg/mL
  MIC0 Blastomyces dermatitidis 05-186: 0.06 µg/mL
  MIC0 Blastomyces dermatitidis 05-1391: 0.03 µg/mL
  MIC0 Blastomyces dermatitidis 05-1707: ≦0.015 μg/mL
  MIC0 Blastomyces dermatitidis 05-1820: 0.06 µg/mL
  MIC0 Blastomyces dermatitidis 05-1829: 0.06 µg/mL
  MIC0 Blastomyces dermatitidis 05-2020: 0.06 µg/mL
  MIC0 Blastomyces dermatitidis R-3529: 0.063 µg/mL
  MIC0 Blastomyces dermatitidis R-35629: 0.03 µg/mL
  MIC B. dermatitidis Gu: 12.5 µg/mL (≈ 23.6 µM)
  MIC B. dermatitidis Kr: >12.5 µg/mL
  MIC B. dermatitidis V: 12.5 µg/mL (≈ 23.6 µM)

## CC[C@H]1O[C@@H](/C(C)=C/[C@H](C)/C=C/[C@H]2[C@@H](C)[C@@H]2/C=C/[C@@H]2O[C@H](CC(=O)O)C[C@H](N)[C@H]2O)CCC1C (some centres unmarked) [IV-a, 20,21-dihydro ambruticin VS-5]
A. fumigatus ATCC 204305
  MIC0 A. fumigatus ATCC 204305: 0.85 µg/mL
Microsporum canis
  MIC0 Mc: 0.5 µg/mL
Candida krusei
  MIC0 C. krusei 6258: >32 µg/mL
Candida parapsilosis
  MIC0 C. parapsilosis 92019: <0.0625 µg/mL
C. immitis
  MIC2 C. immitis 05-469: ≦0.15 μg/mL
  MIC2 C. immitis 05-955: ≦0.15 μg/mL
  MIC2 C. immitis 05-1387: ≦0.15 μg/mL
Candida albicans; strain 05-1422
  MIC2 C. albicans 05-1422: ≦0.15 μg/mL
Candida albicans; strain 05-1422, statement in words
  growth of Candida albicans strain 05-1422: inhibits growth
Candida albicans; strain 05-1424
  MIC2 C. albicans 05-1424: >10 µg/mL
Candida albicans; strain 05-1426
  MIC2 C. albicans 05-1426: >10 µg/mL
Candida albicans; strain 90028, 95% growth inhibition
  MIC0 C. albicans 90028: >32 µg/mL
Histoplasma capsulatum
  MIC2 H. capsulatum 05-959: ≦0.15 μg/mL
  MIC2 H. capsulatum 05-1097: ≦0.15 μg/mL
  MIC2 H. capsulatum 05-1159: ≦0.15 μg/mL
[1]
  MIC0 Tm: 1 µg/mL
Epidermophyton floccosum
  MIC0 Ef: 4 µg/mL
A. flavus ATCC 204304
  MIC0 A. flavus ATCC 204304: 0.18 µg/mL
[2]
  MIC0 Ti: 0.39 µg/mL
Trichophyton rubrum
  MIC0 Tr: 0.5 µg/mL
Microsporum gypseum
  MIC0 Mg: 0.5 µg/mL
Blastomyces dermatitidis
  MIC2 B. dermatitidis 05-106: ≦0.15 μg/mL
  MIC2 B. dermatitidis 05-186: ≦0.15 μg/mL
  MIC2 B. dermatitidis 05-1291: ≦0.15 μg/mL

## CC[C@H]1O[C@@H](C(C)C[C@H](C)/C=C/[C@H]2[C@@H](C)[C@@H]2/C=C/[C@@H]2O[C@H](CC(=O)O)CC(O)[C@H]2O)CC=C1C (stereo partly drawn) [Ambruticin S, (5S,6R)-5,6-dihydroxypoly-angioic acid, reference compound]
C. posadasii; read-out: MIC C. posadasii C735
  MIC: 4 µg/mL (≈ 8.39 µM)
C. posadasii; read-out: MIC C. posadasii RMSCC 2127
  MIC: 2 µg/mL (≈ 4.2 µM)
C. posadasii; read-out: MIC C. posadasii Silveria
  MIC: 2 µg/mL (≈ 4.2 µM)
A. fumigatus ATCC 204305; Aspergillus fumigatus, ATCC204305, read-out: MIC0 A. fumigatus ATCC 204305
  MIC: 29.3 µg/mL (≈ 61.5 µM)
S. apiospermum; strain 94-54, read-out: MIC S. apiospermum 94-54
  MIC: > 32 µg/mL
S. apiospermum; strain 98-38, read-out: MIC S. apiospermum 98-38
  MIC: > 32 µg/mL
S. apiospermum; strain 98-89, read-out: MIC S. apiospermum 98-89
  MIC: 4 µg/mL (≈ 8.39 µM)
C. immitis; read-out: MIC C. immitis RMS 2281
  MIC: 2 µg/mL (≈ 4.2 µM)
C. immitis; read-out: MIC C. immitis RS
  MIC: 2 µg/mL (≈ 4.2 µM)
C. immitis; read-out: MIC C. immitis S46
  MIC: 4 µg/mL (≈ 8.39 µM)
A. flavus ATCC 204304; Aspergillus flavus, ATCC204304, read-out: MIC0 A. flavus ATCC 204304
  MIC: 28.4 µg/mL (≈ 59.7 µM)
Cryptococcus neoformans; read-out: MIC C. neoformans 97-14
  MIC: 8 µg/mL (≈ 16.8 µM)
Cryptococcus neoformans; read-out: MIC C. neoformans 11239
  MIC: 4 µg/mL (≈ 8.39 µM)
Cryptococcus neoformans; read-out: MIC C. neoformans 11240
  MIC: 16 µg/mL (≈ 33.6 µM)
Fusarium solani; Fusarium solani, read-out: MIC F. solani 96-1
  MIC: > 32 µg/mL
Blastomyces dermatitidis; read-out: MIC0 Blastomyces dermatitidis R-35629
  MIC: 0.125 µg/mL (≈ 0.262 µM)
Blastomyces dermatitidis; strain 04-2167, >95% growth inhibition, read-out: MIC0 Blastomyces dermatitidis 04-2167
  MIC: 0.125 µg/mL (≈ 0.262 µM)
Blastomyces dermatitidis; strain 04-2508, >95% growth inhibition, read-out: MIC0 Blastomyces dermatitidis 04-2508
  MIC: 0.25 µg/mL (≈ 0.524 µM)
Blastomyces dermatitidis; strain 04-2915, >95% growth inhibition, read-out: MIC0 Blastomyces dermatitidis 04-2915
  MIC: 1 µg/mL (≈ 2.1 µM)
Blastomyces dermatitidis; strain 05-106, >95% growth inhibition, read-out: MIC0 Blastomyces dermatitidis 05-106
  MIC: 0.5 µg/mL (≈ 1.05 µM)
Blastomyces dermatitidis; strain 05-186, >95% growth inhibition, read-out: MIC0 Blastomyces dermatitidis 05-186
  MIC: 0.125 µg/mL (≈ 0.262 µM)
Blastomyces dermatitidis; strain 05-1391, >95% growth inhibition, read-out: MIC0 Blastomyces dermatitidis 05-1391
  MIC: 0.06 µg/mL (≈ 0.126 µM)
Blastomyces dermatitidis; strain 05-1707, >95% growth inhibition, read-out: MIC0 Blastomyces dermatitidis 05-1707
  MIC: ≤ 0.015 µg/mL
Blastomyces dermatitidis; strain 05-1820, >95% growth inhibition, read-out: MIC0 Blastomyces dermatitidis 05-1820
  MIC: 0.125 µg/mL (≈ 0.262 µM)
Blastomyces dermatitidis; strain 05-1829, >95% growth inhibition, read-out: MIC0 Blastomyces dermatitidis 05-1829
  MIC: 0.25 µg/mL (≈ 0.524 µM)
Blastomyces dermatitidis; strain 05-2020, >95% growth inhibition, read-out: MIC0 Blastomyces dermatitidis 05-2020
  MIC: 0.06 µg/mL (≈ 0.126 µM)
Blastomyces dermatitidis; strain R-3529, >95% growth inhibition, read-out: MIC0 Blastomyces dermatitidis R-3529
  MIC: 0.06 µg/mL (≈ 0.126 µM)
